Key:
Assay type in all cases: in vivo
[1] = tested on: Mythimna separata; experiment: Efficacy test against Mythimna separata (treated artificial feed); conditions: 1 μl of emulsion (I) (5% by mass active ingredient) mixed with 0.8 g artificial feed; second-instar larvae; 25° C.; after five days
Excerpt: (§1) 5 parts by mass of a compound of the present invention, 93.6 parts by mass of dimethylformamide, and 1.4 parts by mass of polyoxyethylene alkyl aryl ether were mixed and dissolved to obtain an emulsion (1) containing 5% by mass of the active ingredient.
(§2) 93.6 parts by mass of dimethylformamide, and 1.4 parts by mass of polyoxyethylene alkyl aryl ether were mixed and dissolved to obtain an emulsion (II).
0.8 g of commercially-available artificial feed (Insect LFS, manufactured by Nosan Corporation) and 1 μl of the emulsion (I) were mixed well, and then 0.2 g of the mixture per treated area was packed into plastic test containers (each having a capacity of 1.4 ml) as test feeds.
Two second-instar larvae of Mythimna separata were left per treated area, and then the test containers were sealed with plastic covers. The test containers were placed in a thermostatic chamber at 25° C., and, after five days had passed therefrom, the mortality and the feed intake were measured. The test was repeated twice.
(§3) In addition, the test was conducted under the same conditions as described above, except that the emulsion (II) was used instead of the emulsion (I), and evaluated as a solvent control area.
The compounds A-2, A-3, A-4, A-9, A-10, A-11, A-15, and A-16 were subjected to an efficacy test against Mythimna separata. […] The mortality was calculated in accordance with the following equation. Mortality (%)=(Died insect number/Tested insect number)×100

[2] = tested on: Spodoptera litura; experiment: Efficacy test against Spodoptera litura (cabbage leaf dip); conditions: foliar, 144 h, 125 ppm by mass, cabbage leaf immersed 30 seconds, second-instar larvae, 25° C., humidity 60%, after six days
Procedure: as §1
The emulsion (I) was diluted with water such that the amount of the compound of the present invention became 125 ppm by mass. A cabbage leaf was immersed in the diluted solution for 30 seconds. The cabbage leaf was air-dried and then put in a petri dish, followed by leaving five second-instar larvae of Spodoptera litura therein. The petri dish was placed in a thermostatic chamber at a temperature of 25° C. and a humidity of 60%. After six days had passed from leaving the larvae, life or death was assessed and the mortality was calculated. The test was repeated twice.

[3] = tested on: Nilaparvata lugens; experiment: Efficacy test against Nilaparvata lugens (rice seedling dip); conditions: 240 h, 125 ppm by mass, rice seedling immersed 30 seconds, second-instar larvae, 25° C., humidity 65%, after ten days
Procedure: as §1
The emulsion (I) was diluted with water such that the amount of the compound of the present invention became 125 ppm by mass. A rice seedling was immersed in the diluted solution for 30 seconds, air-dried, and then placed in a plastic case, followed by leaving five second-instar larvae of Nilaparvata lugens therein. The plastic case was placed in a thermostatic chamber at a temperature of 25° C. and a humidity of 65%. After ten days had passed therefrom, life or death was assessed and the mortality was calculated. The test was repeated twice.

[4] = tested on: Helicoverpa armigera; experiment: Efficacy test against Helicoverpa armigera (cabbage leaf dip); conditions: foliar, 144 h, 125 ppm by mass, cabbage leaf immersed 30 seconds, second-instar larvae, 25° C., humidity 60%, after six days
[5] = tested on: Tetranychus urticae; experiment: Efficacy test against Tetranychus urticae (spray on kidney bean); conditions: 125 ppm by mass sprayed on kidney bean; female adults removed after three days; living number counted ten days after spraying; 25° C., humidity 65%
Excerpt: as §1, §2
Five female adults of Tetranychus urticae were left on primary leaves of kidney bean planted in a 3-sun pot. The emulsion (I) was diluted with water such that the amount of the compound of the present invention became 125 ppm by mass. The diluted solution was sprayed on the kidney bean and evaluated as a treated area. The 3-sun pot was placed in a thermostatic chamber at a temperature of 25° C. and a humidity of 65%, and after three days had passed from spraying, the female adults of Tetranychus urticae were removed to leave only laid eggs remaining on the leaves. After ten days had passed from spraying, the number of living Tetranychus urticae was counted. The test was repeated twice.
as §3
The control ratio was calculated in accordance with the following equation. Control ratio (%)=100×[1−Nt/Nc] […]

[6] = tested on: Aphis gossypii; experiment: Efficacy test against Aphis gossypii (spray on cucumber); conditions: 120 h, 125 ppm by mass sprayed on cucumber, first-instar larvae, 25° C., humidity 60%, after five days
Excerpt: as §1
Cucumber was sown in a 3-sun pot. After ten days had passed from germination, a female adult of Aphis gossypii was left on the cucumber. On the next day, laid first-instar larvae were left, and the female adult was removed. The emulsion (I) was diluted with water such that the amount of the compound of the present invention became 125 ppm by mass. The diluted solution was sprayed on the cucumber. Then, the cucumber was placed in a thermostatic chamber at a temperature of 25° C. and a humidity of 60%. After five days had passed therefrom, life or death of Aphis gossypii was assessed and the mortality was calculated.

O=C([N-][n+]1ccccn1)c1ccc(-c2ccc(OC(F)(F)C(F)F)cc2)nc1 [Compound A-2]
mortality or feed intake relative to the feed intake at the solvent control area [1]: 100% mortality of Mythimna separata or 10% or less of the feed intake

O=C([N-][n+]1cnn(CC(F)(F)F)c1)c1ccc(-c2ccc(OC(F)(F)C(F)F)cc2)c(Cl)c1 [Compound A-4]
mortality or feed intake relative to the feed intake at the solvent control area [1]: 100% mortality of Mythimna separata or 10% or less of the feed intake
mortality at 125 ppm [2]: ≥ 80%

O=C([N-][n+]1ccccn1)c1ccc(-c2ccc(OC(F)(F)C(F)F)cc2)cc1 [Compound A-11]
mortality or feed intake relative to the feed intake at the solvent control area [1]: 100% mortality of Mythimna separata or 10% or less of the feed intake
mortality at 125 ppm [2]: ≥ 80%
mortality at 125 ppm [3]: ≥ 80%

O=C([N-][n+]1ccsc1)c1ccc(-c2ccc(OC(F)(F)C(F)F)cc2)cc1 [Compound A-10]
mortality or feed intake relative to the feed intake at the solvent control area [1]: 100% mortality of Mythimna separata or 10% or less of the feed intake

Cn1cc[n+]([N-]C(=O)c2ccc(-c3ccc(OC(F)(F)C(F)F)cc3)cc2)c1 [Compound A-9]
mortality or feed intake relative to the feed intake at the solvent control area [1]: 100% mortality of Mythimna separata or 10% or less of the feed intake
mortality at 125 ppm [2]: ≥ 80%
mortality at 125 ppm [4]: ≥ 90%

O=C([N-][n+]1ccccn1)c1ccc(C(F)(F)F)cc1 [Compound A-18]
control ratio [5]: ≥ 90%

O=C([N-][n+]1ccncc1)c1ccc(C(F)(F)F)cc1 [Compound A-19]
mortality at 125 ppm [6]: ≥ 80%

Cn1cc[n+]([N-]C(=O)c2ccc(-c3ccc(OC(F)(F)F)cc3)cc2)c1 [Compound A-13]
mortality at 125 ppm [2]: ≥ 80%

O=C([N-][n+]1ccccn1)c1ccc(-c2ccc(OCC(F)(F)F)nc2)nc1 [Compound A-3]
mortality or feed intake relative to the feed intake at the solvent control area [1]: 100% mortality of Mythimna separata or 10% or less of the feed intake

O=C([N-][n+]1ccccn1)c1ccc(-c2ccc(OC(F)(F)F)cc2)cc1 [Compound A-16]
mortality or feed intake relative to the feed intake at the solvent control area [1]: 100% mortality of Mythimna separata or 10% or less of the feed intake

O=C([N-][n+]1ccncc1)c1ccc(-c2ccc(OC(F)(F)F)cc2)cc1 [Compound A-15]
mortality or feed intake relative to the feed intake at the solvent control area [1]: 100% mortality of Mythimna separata or 10% or less of the feed intake

From patent US12384749B2, “Onium salt of nitrogen-containing heteroaryl compound and pest control agent” (Nippon Soda Co., Ltd., priority 2019, dated 2025)
